Key:
[1] = target: T1, rat lens aldose reductase (RLAR) (Rattus norvegicus, UniProt P07943); test: Rat lens AR inhibitory activity assay; type: biochemical; conditions: isolated compounds; for IC50: read-out: RLAR inhibition IC50
T1 construct: Rat lens (RL) homogenate was prepared according to the modified method of Hayman and Kinoshita; from tissue; host or cells: lens of male Sprague-Dawley rats (homogenate supernatant, partially purified)

[2] = target: T2, rat lens AR (Rattus norvegicus, UniProt P07943); test: HPLC microfractionation rat lens AR assay; type: biochemical; set-up: concentration or dose not given beside the values; conditions: amount of efficacy in HPLC microfractionation (Table 3)
T2 construct: Rat lens (RL) homogenate was prepared according to the modified method of Hayman and Kinoshita; from tissue; host or cells: lens of male Sprague-Dawley rats (homogenate supernatant, partially purified)

[3] = ABTS radical scavenging activity (TEAC assay); conditions: for IC50: read-out: Antioxidant IC50
[4] = ABTS-offline HPLC assay of the EtOAc fraction; conditions: 254 nm; for Peak area change after ABTS (in words): EtOAc fraction spiked with ABTS solution, Figure 1(a); for Antioxidant quantitative reduction (%): amount of peak decrease in ABTS-offline HPLC
[5] = Partition coefficient (K) in two-phase HSCCC solvent systems; type: physicochemical
[6] = n-Hexane-ethyl acetate-methanol-water 2.5 : 7.5 : 5 : 5 (v/v)
[7] = n-Hexane-ethyl acetate-methanol-water 3 : 7 : 4.5 : 5.5 (v/v)
[8] = n-Hexane-ethyl acetate-methanol-water 4 : 6 : 2.5 : 7.5 (v/v)
[9] = n-Hexane-ethyl acetate-methanol-water 4 : 6 : 3.5 : 5.5 (v/v)

Row | SMILES | IC50 [1] | RLAR inhibition, Inhibition (%) [2] | IC50 ([3]; isolated compounds) | K values ([5]; n-Heptane-ethyl acetate-methanol-water 1 : 6 : 1 : 6 (v/v)) | K values [5, 6] | K values [5, 7] | K values [5, 8] | K values [5, 9] | RLAR activity (in words) [1] | Antioxidant IC50 ([3]; concentration of 50% inhibition) | K values ([5]; n-Hexane-ethyl acetate-methanol-water 1 : 3 : 1 : 3 (v/v)) | Antioxidant activity (in words) ([3]; isolated compounds) | Peak area change after ABTS (in words) [4] | Antioxidant quantitative reduction (%) [4] | Antioxidant TEAC (Trolox equivalent antioxidant capacity) ([3]; relative to Trolox = 1.00)
1 | COc1c(O[C@@H]2O[C@H](CO)[C@@H](O)[C@H](O)[C@H]2O)cc2occ(-c3ccc(O)cc3)c(=O)c2c1O [Compound 4, tectoridin] | 50.4 ± 2.17 µM | 43.37% | > 500 µM | – | – | – | – | – | – | – | – | did not have antioxidant activity | slightly decreased | 8.43% | –
2 | O=c1c(-c2ccc(O)cc2)coc2cc(O)ccc12 [Compound 7, daidzein] | 152 ± 2.91 µM | 28.14% | > 500 µM | – | – | – | – | – | – | – | – | – | – | 0.48% | –
3 | Oc1ccc(/C=C/c2cc(O)cc(O)c2)cc1 [Compound 6, resveratrol] | 118 ± 3.12 µM | 29.31% | 11.05 ± 0.04 µM | 9.56 | 0.57 | 0.59 | 4.62 | 0.90 | – | – | – | – | – | – | –
4 | COc1cc(/C=C/C(=O)O)ccc1O [Compound 3, trans-ferulic acid] | > 500 µM | 5.21% | 13.51 ± 0.04 µM | – | – | – | – | – | did not have RLAR activity | – | – | – | peak area reductions | 20.06% | –
5 | Cc1c(C)c2c(c(C)c1O)CCC(C)(C(=O)O)O2 (stereo not drawn) [Trolox, 6-hydroxy-2,5,7,8-tetrame-thylchroman-2-carboxylic acid, reference compound] | – | – | – | – | – | – | – | – | – | 8.72 ± 0.01 µg/mL | – | – | – | – | 1.00
6 | O=c1c(-c2ccc(O)cc2)coc2cc(O)cc(O)c12 [Compound 8, genistein] | 57.1 ± 3.23 µM | 38.54% | > 500 µM | – | 2.04 | 2.52 | 15.01 | 3.73 | – | – | 35.34 | – | – | 2.24% | –

Further lines, with some results ahead:

Row | IC50 [1] | RLAR inhibition, Inhibition (%) [2] | IC50 ([3]; isolated compounds) | K values ([5]; n-Heptane-ethyl acetate-methanol-water 1 : 6 : 1 : 6 (v/v)) | K values [5, 6] | K values [5, 7] | K values [5, 8] | K values [5, 9] | RLAR activity (in words) [1] | Antioxidant IC50 ([3]; concentration of 50% inhibition) | K values ([5]; n-Hexane-ethyl acetate-methanol-water 1 : 3 : 1 : 3 (v/v)) | SMILES | Antioxidant activity (in words) ([3]; isolated compounds) | Peak area change after ABTS (in words) [4] | Antioxidant quantitative reduction (%) [4] | Antioxidant TEAC (Trolox equivalent antioxidant capacity) ([3]; relative to Trolox = 1.00)
7 | 4.2 ± 3.2 µM | 51.02% | – | – | – | – | – | – | – | – | – | O=C(/C=C/c1ccc(O)c(O)c1)O[C@@H]1C[C@](O)(C(=O)O)C[C@@H](O)[C@H]1O [Compound 1, chlorogenic acid] | – | – | – | –
8 | 69.2 ± 2.57 µM | 30.11% | > 500 µM | – | 0.33 | 0.40 | 3.39 | 0.39 | – | – | – | COc1ccc(-c2coc3cc(O)ccc3c2=O)cc1 [Compound 9, formononetin] | – | – | 0.69% | –
9 | > 500 µM | – | 6.73 ± 0.04 µM | – | 0.37 | 0.34 | 3.91 | 0.37 | did not have RLAR activity | – | – | Oc1cc(O)cc(/C=C/c2ccc(O)c(O)c2)c1 [Compound 5, piceatannol] | – | peak area reductions | 34.68% | –
